Experimental data as given in patent US4337252A, “1-Phenyl-4-morpholino-1-buten-3-01 derivatives, compositions and use” (Univablot, priority 1980, dated 1982).

Assays:
[1] = Toxicity: LD50 in mice by the intraperitoneal route (log-probits method of Miller and Tainter); details: mouse, in vivo
Method: The LD50 of the products was measured in mice by the intraperitoneal route according to the "log-probits" method of Miller and Tainter (Proc. Soc. Exptl. Biol. Med. 1944; 57, 261-264).

[2] = test system: reserpine-induced blepharospasm; assay: Reserpine antagonism (blepharospasm); type: in vivo, Male, Swiss strain mice; details: mice, IP, 1/10 of LD50, 30 min before reserpine 5 mg/kg IP; class symbols
Method: 3. Reserpine antagonism (blepharospasm) (Chen G., and Bohner B., (1961) J. Pharmacol. Exptl. Therap. 131, 179).
Reserpine administered to mice in a dosage of 5 mg/kg intraperitoneally subsequently causes the eyelids to drop more or less completely in the majority of the animals. The administration of certain products inhibits the blepharospasm produced by reserpine.
Male, Swiss strain mice are distributed into groups of 10 and each experiment comprises at least 3 groups:
a control group that receives only the solvent and reserpine
a group treated with a reference product: we chose imipramine
a treated group that receives the product being tested in a dosage of 1/10 of the LD50.
The products being tested are administered intraperitoneally 30 minutes before the intraperitoneal injection of reserpine in a dosage of 5 mg/kg, so as to study their activity as a function of time.
The degree of ptosis for each eye and for each animal is observed every 30 minutes for 4 to 5 hours, according to RUBIN's scoring system (RUBIN et al., J. Pharm. Exp. Therap. 1957, 120, 125-136). The activity of the product is determined by comparing the result obtained with the treated control group. The inhibition of blepharospasm is recorded from 0 to +++.

| Structure (SMILES) | LD50 ([1]; mice, IP) | Blepharospasm (inhibition of reserpine-induced blepharospasm) [2] | LD50 ([1]; ip) |
| --- | --- | --- | --- |
| COc1ccc(C=CC(O)CN2CCOCC2)cc1 (stereo not drawn) [Example 1, 1-(p-methoxyphenyl)-4-morpholino-1-buten-3-ol] | 500 mg/kg | +++ (inhibition >45%) | – |
| OC(C=Cc1ccc(Cl)cc1)CN1CCOCC1 (stereo not drawn) [Example 2] | – | +++ (inhibition >45%) | 400 mg/kg |
| OC(C=Cc1ccc(F)cc1)CN1CCOCC1 (stereo not drawn) [Example 3] | – | ++ (inhibition 26-45%) | 800 mg/kg |
| Oc1ccc(C=CC(O)CN2CCOCC2)cc1 (stereo not drawn) [Example 4] | – | ++ (inhibition 26-45%) | 650 mg/kg |
| C#CCOc1ccc(C=CC(O)CN2CCOCC2)cc1 (stereo not drawn) [Example 5] | – | ++ (inhibition 26-45%) | 400 mg/kg |
| C=CCOc1ccc(C=CC(O)CN2CCOCC2)cc1 (stereo not drawn) [Example 6] | – | ++ (inhibition 26-45%) | 300 mg/kg |
